Tested on: S. aureus
Assay: Inhibition in RP 340 polypropylene copolymer after aging in UV chamber
Format: cell-based
Details: after 120 h of aging in UV chamber

Oc1cc(Cl)ccc1Oc1ccc(Cl)cc1Cl [triclosan]
After 120 h of aging Inhibition %.: starts decreasing its antimicrobial effectiveness

From patent publication US11154063B2, “Method for producing a bacteriostatic and fungistatic additive in masterbatch for application in plastics” (SERVICIOS ADMINISTRATIVOS PEÑOLES, S.A. DE C.V., priority 2013, dated 2021)
